# ChEMBL document CHEMBL1150565, “Cheilanthane sesterterpenes, protein kinase inhibitors, from a marine sponge of the genus Ircinia” (J Nat Prod, 2001)
# Experiments:
# [1] = biological target: Ribosomal protein S6 kinase alpha-5 (Homo sapiens, UniProt O75582); assay: Inhibition of MSK1 assessed as [33P] incorporation by scintillation proximity assay
# [2] = biological target: MAP kinase-activated protein kinase 2 (Homo sapiens, UniProt P49137); assay: Inhibition of MAPKAPK2 assessed as [33P] incorporation by scintillation proximity assay
# Sequence of MAP kinase-activated protein kinase 2 (P49137 whole entry): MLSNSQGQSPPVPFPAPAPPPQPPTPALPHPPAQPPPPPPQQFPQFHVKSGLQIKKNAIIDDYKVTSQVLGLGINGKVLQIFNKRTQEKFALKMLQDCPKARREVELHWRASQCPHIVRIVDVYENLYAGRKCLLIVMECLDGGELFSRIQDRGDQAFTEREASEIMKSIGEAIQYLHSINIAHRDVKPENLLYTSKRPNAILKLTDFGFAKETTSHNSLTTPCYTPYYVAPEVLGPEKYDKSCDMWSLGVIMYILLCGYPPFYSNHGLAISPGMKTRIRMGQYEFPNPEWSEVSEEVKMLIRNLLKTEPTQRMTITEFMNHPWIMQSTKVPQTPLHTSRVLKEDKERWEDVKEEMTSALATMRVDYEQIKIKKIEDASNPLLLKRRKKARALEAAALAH
# Sequence of Ribosomal protein S6 kinase alpha-5 (O75582 whole entry): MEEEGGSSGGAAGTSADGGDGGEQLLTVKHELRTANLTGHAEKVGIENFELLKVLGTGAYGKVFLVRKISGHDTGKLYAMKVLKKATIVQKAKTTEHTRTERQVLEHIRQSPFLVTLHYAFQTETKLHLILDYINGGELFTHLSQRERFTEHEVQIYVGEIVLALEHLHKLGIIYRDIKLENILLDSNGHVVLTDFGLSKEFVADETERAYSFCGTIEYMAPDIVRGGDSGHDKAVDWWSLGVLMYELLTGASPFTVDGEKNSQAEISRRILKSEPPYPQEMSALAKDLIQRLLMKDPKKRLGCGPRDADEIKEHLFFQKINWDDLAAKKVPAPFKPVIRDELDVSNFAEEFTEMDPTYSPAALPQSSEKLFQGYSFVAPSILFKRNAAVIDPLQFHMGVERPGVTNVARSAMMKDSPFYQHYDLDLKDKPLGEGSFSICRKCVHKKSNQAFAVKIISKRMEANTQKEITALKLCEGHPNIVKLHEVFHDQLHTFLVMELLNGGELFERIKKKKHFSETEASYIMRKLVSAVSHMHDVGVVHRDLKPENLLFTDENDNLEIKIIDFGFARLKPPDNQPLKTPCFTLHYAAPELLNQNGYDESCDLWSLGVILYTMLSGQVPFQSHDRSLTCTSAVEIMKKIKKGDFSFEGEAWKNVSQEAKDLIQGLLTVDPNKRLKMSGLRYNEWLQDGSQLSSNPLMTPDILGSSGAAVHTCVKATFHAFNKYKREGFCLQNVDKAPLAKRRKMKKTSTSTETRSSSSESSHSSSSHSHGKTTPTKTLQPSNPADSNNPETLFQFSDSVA
IC50 [1] [µM],IC50 [2] [µM],Compound
4,90,C=C1CC[C@H]2[C@@](C)(CC[C@H]3C(C)(C)CCC[C@]23C)[C@@H]1CC1OC(=O)C=C1CO (stereo partly drawn)
4,90,CC1(C)CCC[C@]2(C)[C@H]3CC[C@]4(C)O[C@@H](C5=CC(=O)OC5O)C[C@H]4[C@]3(C)CC[C@@H]12 (mixture of isomers)
4,90,C=C1CC[C@H]2[C@@](C)(CC[C@H]3C(C)(C)CCC[C@]23C)[C@@H]1CC(O)C1=CC(=O)OC1O (mixture of isomers)
4,90,C=C1CC[C@H]2[C@@](C)(CC[C@H]3C(C)(C)CCC[C@]23C)[C@@H]1/C=C/C1=CC(=O)OC1O (mixture of isomers)
